Laboratory results taken from patent US20240398768A1, “METHODS OF TREATING SOLID TUMOR USING HETEROAROMATIC MACROCYCLIC ETHER COMPOUNDS” (Nuvalent, Inc., priority 2021, published 2024).

What was measured:
[1] = test system: NIH3T3 cells expressing ROS1 fusions with G2032R; test: Anchorage-independent colony formation assay; format: cell-based; settings: at 100 nM
Description: Each inhibitor was paired with its own DMSO condition to serve as an accurate control. NIH3T3 cells expressing CD74-ROS1 or EZR-ROS1 wild-type or mutant fusions were plated in 0.4% agarose in complete medium at a density of 2,000 cells per 0.5 mL of agarose with DMSO or inhibitor at identical concentration to the bottom layer. Plates were incubated for 4 weeks, and each well was fed 3× per week with 75 μL of complete medium with or without inhibitor to match each plated condition to prevent drying of the agarose. Plates were read after 3 and 4 weeks using a GelCount™ (Oxford Optronix). Colony counts were averaged by condition and normalized to the colony counts from paired DMSO conditions. Data analysis and visualization was performed using Microsoft Excel and GraphPad Prism.

[2] = target: T1, CYP2C19 (Homo sapiens, UniProt P33261); test: CYP inhibition; format: in vitro ADME
[3] = target: T2, CYP2B6 (Homo sapiens, UniProt P20813); test: CYP substrate assessment; format: in vitro ADME
T2 sequence (P20813 1-491): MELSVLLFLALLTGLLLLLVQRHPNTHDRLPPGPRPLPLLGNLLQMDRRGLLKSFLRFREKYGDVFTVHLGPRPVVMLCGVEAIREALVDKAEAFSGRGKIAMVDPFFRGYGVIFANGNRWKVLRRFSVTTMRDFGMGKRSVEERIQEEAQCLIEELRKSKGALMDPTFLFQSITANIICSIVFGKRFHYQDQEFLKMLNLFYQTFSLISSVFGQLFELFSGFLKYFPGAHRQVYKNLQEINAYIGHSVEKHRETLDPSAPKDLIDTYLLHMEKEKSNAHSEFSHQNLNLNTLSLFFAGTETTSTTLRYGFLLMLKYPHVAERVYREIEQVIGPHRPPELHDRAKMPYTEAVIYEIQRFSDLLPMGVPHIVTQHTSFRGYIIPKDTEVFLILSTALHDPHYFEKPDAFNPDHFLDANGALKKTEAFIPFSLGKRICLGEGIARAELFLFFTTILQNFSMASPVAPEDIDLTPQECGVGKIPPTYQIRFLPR

[4] = target: T1, CYP2C19; test: CYP substrate assessment; format: in vitro ADME
[5] = target: CYP2D6 (Homo sapiens, UniProt P10635); test: CYP substrate assessment; format: in vitro ADME
[6] = target: T3, CYP2C8 (Homo sapiens, UniProt P10632); test: CYP substrate assessment; format: in vitro ADME
T3 sequence (P10632 1-490): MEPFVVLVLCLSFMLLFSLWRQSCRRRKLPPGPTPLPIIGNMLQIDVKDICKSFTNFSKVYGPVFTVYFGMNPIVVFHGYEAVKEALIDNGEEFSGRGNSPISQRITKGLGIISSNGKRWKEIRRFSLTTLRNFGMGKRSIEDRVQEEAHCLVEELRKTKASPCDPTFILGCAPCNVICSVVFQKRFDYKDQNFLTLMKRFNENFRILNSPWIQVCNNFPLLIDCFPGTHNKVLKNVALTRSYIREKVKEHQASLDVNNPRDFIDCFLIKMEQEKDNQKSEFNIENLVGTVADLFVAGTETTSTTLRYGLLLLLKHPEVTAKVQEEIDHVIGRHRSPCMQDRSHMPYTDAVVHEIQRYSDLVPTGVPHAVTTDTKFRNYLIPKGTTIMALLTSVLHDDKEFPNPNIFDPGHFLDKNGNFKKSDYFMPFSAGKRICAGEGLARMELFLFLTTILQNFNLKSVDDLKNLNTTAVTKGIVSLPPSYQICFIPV

[7] = test system: CYP3A4; test: CYP induction; format: in vitro ADME

T1 sequence (P33261 whole entry): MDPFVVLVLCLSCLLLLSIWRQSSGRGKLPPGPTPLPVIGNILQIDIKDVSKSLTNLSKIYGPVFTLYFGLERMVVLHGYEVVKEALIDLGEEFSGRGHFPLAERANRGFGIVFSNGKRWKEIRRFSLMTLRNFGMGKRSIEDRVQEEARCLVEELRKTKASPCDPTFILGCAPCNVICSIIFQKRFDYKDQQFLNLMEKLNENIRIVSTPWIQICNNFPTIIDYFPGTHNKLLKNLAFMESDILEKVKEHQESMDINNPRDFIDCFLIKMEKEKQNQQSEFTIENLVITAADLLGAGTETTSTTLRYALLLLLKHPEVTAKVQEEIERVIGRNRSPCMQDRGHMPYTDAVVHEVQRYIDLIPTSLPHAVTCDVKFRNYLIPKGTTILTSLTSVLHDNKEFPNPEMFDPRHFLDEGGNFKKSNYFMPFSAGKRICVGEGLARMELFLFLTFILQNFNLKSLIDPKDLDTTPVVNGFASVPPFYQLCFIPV
Chain of CYP2D6 (P10635 whole entry): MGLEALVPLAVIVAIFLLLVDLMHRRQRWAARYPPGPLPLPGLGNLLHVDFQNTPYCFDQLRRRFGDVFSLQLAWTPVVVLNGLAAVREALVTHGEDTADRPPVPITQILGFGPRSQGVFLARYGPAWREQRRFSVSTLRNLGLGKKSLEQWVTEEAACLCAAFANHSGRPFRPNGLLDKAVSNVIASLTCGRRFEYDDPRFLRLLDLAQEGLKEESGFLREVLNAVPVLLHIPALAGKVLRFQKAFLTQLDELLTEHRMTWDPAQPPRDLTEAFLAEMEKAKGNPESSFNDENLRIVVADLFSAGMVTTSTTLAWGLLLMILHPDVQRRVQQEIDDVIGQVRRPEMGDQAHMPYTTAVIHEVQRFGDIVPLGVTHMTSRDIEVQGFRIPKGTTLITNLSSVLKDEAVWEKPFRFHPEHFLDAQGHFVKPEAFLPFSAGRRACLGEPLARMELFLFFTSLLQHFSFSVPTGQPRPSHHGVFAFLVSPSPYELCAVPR

CCn1ncc2c1-c1cnc(N)c(c1)O[C@H](C)c1cc(F)ccc1-c1nn(C)nc1C2 [Compound 1, (19R)-3-ethyl-16-fluoro-10,19-dimethyl-20-oxa-3,4,9,10,11,23-hexaazapentacyclo [19.3.1.0^2,^6.0^8,^12.0^13,^18]pentacosa-1 (24),2 (6),4,8,11,13,15,17,21 (25),22-decaen-22-amine]
inhibition of colony formation [1]: > 90% | IC50 [2]: 38.4 µM | substrate for CYP2B6 [3]: not considered a substrate | substrate for CYP2C19 [4]: not considered a substrate | substrate for CYP2D6 [5]: not considered a substrate | metabolism contribution from CYP2C8 [6]: potential for contributions | inducer of CYP3A4 [7]: potential inducer
